# Values joined by “and” are separate entries in the source; they are usually repeats but may differ in a detail not shown here. Equal values may be shown once.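 Cultured in 96-well plates, cells were exposed to test compound for 48 hours across five concentrations. At the GI50, growth is halved. TGI: total growth inhibition.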
# Key:
# Assay in all cases: NCI-60 cell line screen, 48 h
# NCI/ADR-RES ovarian = tested on: NCI/ADR-RES ovarian
# OVCAR-5 ovarian = tested on: OVCAR-5 ovarian
# K-562 leukemia = tested on: K-562 leukemia
# HS 578T breast = tested on: HS 578T breast
# RXF 393 renal = tested on: RXF 393 renal
# SK-MEL-28 melanoma = tested on: SK-MEL-28 melanoma
# HOP-62 NSCLC = tested on: HOP-62 NSCLC
# OVCAR-4 ovarian = tested on: OVCAR-4 ovarian
# HL-60(TB) leukemia = tested on: HL-60(TB) leukemia
# UACC-257 melanoma = tested on: UACC-257 melanoma
Compound,GI50 (NCI/ADR-RES ovarian),TGI (NCI/ADR-RES ovarian),GI50 (OVCAR-5 ovarian),TGI (OVCAR-5 ovarian),GI50 (K-562 leukemia),TGI (K-562 leukemia),GI50 (HS 578T breast),TGI (HS 578T breast),GI50 (RXF 393 renal),TGI (RXF 393 renal),GI50 (SK-MEL-28 melanoma),TGI (SK-MEL-28 melanoma),GI50 (HOP-62 NSCLC),TGI (HOP-62 NSCLC),GI50 (OVCAR-4 ovarian),TGI (OVCAR-4 ovarian),GI50 (HL-60(TB) leukemia),TGI (HL-60(TB) leukemia),GI50 (UACC-257 melanoma),TGI (UACC-257 melanoma)
O=C(O)c1ccc2c(c1)nc(Nc1cccc(Cl)c1)c1ccncc12,3.17 µM and 3.73 µM,> 80.1 µM,3.2 µM and 4.53 µM,38.7 µM and > 10 µM,3.06 µM and 4.09 µM,15.7 µM and > 10 µM,0.435 µM and 1.17 µM,3.88 µM and 6.21 µM,3.23 µM and 4.17 µM,13 µM and > 10 µM,3.12 µM and 3.2 µM,21.9 µM and > 10 µM,3.3 µM and 3.38 µM,25.5 µM and > 10 µM,2.09 µM and 4.08 µM,21.6 µM and > 10 µM,2.88 µM and 4.98 µM,7.67 µM and > 10 µM,3.88 µM and 2.68 µM,20.3 µM and > 10 µM
COc1ccc(Cn2cc3c(c2-c2cc(OC)c(OC)c(OC)c2)CCc2cnoc2-3)cc1[N+](=O)[O-],0.364 µM,,5.08 µM,> 100 µM,0.358 µM,> 100 µM,1.13 µM,,1.02 µM,6.22 µM,3.39 µM,> 100 µM,2.85 µM,> 100 µM,3.75 µM,> 100 µM,0.412 µM,7.98 µM,4.03 µM,> 100 µM
Cc1c(NC(=O)OC[C@@H]2COCCN2)cn2ncnc(Nc3ccc4c(cnn4Cc4cccc(F)c4)c3)c12,> 10 µM and 13.1 µM,> 10 µM and 33.5 µM,> 10 µM and 8.82 µM,> 10 µM and 21.4 µM,3.91 µM and 4.53 µM,> 10 µM and 17.1 µM,2.32 µM and 5.49 µM,> 10 µM and 52.2 µM,2.89 µM and 4.15 µM,> 10 µM and 15.3 µM,> 10 µM and 7.04 µM,> 10 µM and 21.4 µM,> 10 µM and 11.5 µM,> 10 µM and 24.9 µM,> 10 µM and 8.04 µM,> 10 µM and 27.3 µM,7.76 µM and 17.5 µM,> 10 µM and 37 µM,> 10 µM and 5.34 µM,> 10 µM and 18.2 µM
COc1ccc(C(=O)COc2cccc(/C=C3\CSc4ccc(C)cc4C3=O)c2)cc1,3.89 µM,18.7 µM,51.9 µM,> 100 µM,2.17 µM,6.9 µM,40.4 µM,> 100 µM,19.9 µM,49 µM,17.4 µM,45.5 µM,24.9 µM,> 100 µM,7.26 µM,> 100 µM,5.44 µM,43.3 µM,49.2 µM,> 100 µM
CC(=O)[O][Hg][c]1ccccc1,1.7 µM,5.74 µM,2.19 µM,3.84 µM,0.294 µM,1.31 µM,0.289 µM,1.67 µM,0.234 µM,0.797 µM,0.383 µM,1.47 µM,1.62 µM,3.11 µM,0.43 µM,2.24 µM,0.201 µM,0.487 µM,0.908 µM,2.18 µM
CCc1nc(N)nc(N)c1-c1ccc(NCCc2ccccc2)c([N+](=O)[O-])c1,,53.7 µM,,> 73.4 µM,,> 36.3 µM,,> 75.4 µM,,40.7 µM,,28.2 µM,,> 46.9 µM,,46.2 µM,,6.77 µM,,26.2 µM
CN(C[C@@H]1COCCO1)S(=O)(=O)Nc1ccc2ccc3ncc(-c4cnn(C)c4)cc3c(=O)c2c1,11.8 µM,> 100 µM,> 81.2 µM,> 100 µM,6.57 µM,> 100 µM,1.35 µM,6.16 µM,1.1 µM,6.71 µM,> 66.8 µM,> 100 µM,10.9 µM,> 100 µM,5.65 µM,> 100 µM,6.77 µM,> 100 µM,> 100 µM,> 100 µM
CCN1C(=O)N(c2ccccc2)C2NN=c3s/c(=C4\C(=O)N(C(C)C)c5ccccc54)c(=O)n3C21 (stereo not drawn),0.702 µM,3.84 µM,3.38 µM,> 100 µM,0.518 µM,> 100 µM,1.06 µM,21.8 µM,0.612 µM,2.63 µM,2.71 µM,> 100 µM,0.689 µM,18.9 µM,3.71 µM,> 100 µM,1.03 µM,> 23.6 µM,> 51.8 µM,> 100 µM
COc1ccc2c(c1)[n+](=O)c(C(=O)/C=C/c1cc(OC)c(OC)c(OC)c1)c(C)n2[O-],32.3 µM,> 100 µM,20.8 µM,62.9 µM,> 100 µM,> 100 µM,11.8 µM,34.5 µM,6.47 µM,21.5 µM,> 100 µM,> 100 µM,18.7 µM,37.2 µM,> 100 µM,> 100 µM,> 100 µM,> 100 µM,34.1 µM,> 100 µM
C#CCOc1cccc(Nc2ncnc3ccc(NC(=O)CCl)cc23)c1,0.817 µM,> 100 µM,3.04 µM,19.4 µM,0.117 µM,> 100 µM,4.12 µM,> 100 µM,4.47 µM,19 µM,5.15 µM,27 µM,4.2 µM,> 53.2 µM,5.49 µM,25.6 µM,1.66 µM,19.2 µM,7.49 µM,26 µM
CCCCn1sc(=O)n(Cc2ccc(CNC(=O)OCc3ccc4c(Br)cc(Br)c(O)c4n3)cc2)c1=O,0.325 µM,> 100 µM,> 24.7 µM,> 100 µM,0.434 µM,> 100 µM,0.959 µM,> 100 µM,0.47 µM,> 100 µM,,> 100 µM,0.749 µM,> 100 µM,0.701 µM,> 100 µM,0.374 µM,,> 100 µM,> 100 µM
N[C@@H]1CCCN(c2c(/C=C3\SC(=O)NC3=O)cccc2-c2ccccc2)C1,17.4 µM,40.4 µM,10.5 µM,23.4 µM,11.7 µM,54.2 µM,14 µM,64 µM,6.06 µM,20.2 µM,13.1 µM,27.8 µM,11.7 µM,25.5 µM,13.2 µM,28.4 µM,17.8 µM,42.6 µM,10.9 µM,23.5 µM
COc1ccc(C(=O)/C=C/c2ccc(OCC(=O)N3CCN(c4ccccc4)CC3)cc2)cc1,,> 100 µM,,> 100 µM,,> 100 µM,,> 76.5 µM,,74 µM,,> 100 µM,,> 79.6 µM,,> 100 µM,,> 67.3 µM,,> 100 µM
Cn1c(=S)c2[nH]c(SCCN3CCCC3)nc2n(C)c1=O,,> 100 µM,,> 100 µM,,> 100 µM,,> 100 µM,,> 100 µM,,> 100 µM,,> 100 µM,,> 100 µM,,> 100 µM,,> 100 µM
C/C(Cc1ccc(Cl)cc1)=C(/c1ccc(Cl)cc1)c1ccc(OCCN(C)C)cc1,4.8 µM,9.88 µM,4.79 µM,9.3 µM,0.981 µM,5.83 µM,4.72 µM,11 µM,3.45 µM,7.54 µM,4.85 µM,9.29 µM,6.07 µM,11.8 µM,3.52 µM,7.57 µM,3.89 µM,10 µM,4.24 µM,9.38 µM
CC(=O)OC1CC2C(C)(C)C(=O)C=CC2(C)C2CCC3(C)C(c4ccoc4)OC(=O)C4OC43C12C (stereo not drawn),,> 100 µM,,> 100 µM,,> 100 µM,,> 100 µM,,27.2 µM,,> 100 µM,,87 µM,,> 100 µM,,> 100 µM,,> 100 µM
Nc1nc(N)c2nc(CNc3ccc(C(=O)NC(CCCNC(=O)c4ccccc4C(=O)O)C(=O)O)cc3)cnc2n1 (stereo not drawn),0.00273 µM,> 100 µM,0.00196 µM,> 100 µM,< 0.0242 µM and 0.000381 µM,> 100 µM,,> 100 µM,,> 100 µM,,> 100 µM,< 0.02 µM and 0.00449 µM and < 0.0546 µM,> 100 µM,> 100 µM,> 100 µM,0.00049 µM,> 100 µM,0.0155 µM,> 100 µM
O=C1CCc2c(sc3[nH]c(=S)n(Cc4ccccc4)c(=O)c23)C1,3.25 µM,> 100 µM,3.67 µM,> 100 µM,1.76 µM,> 100 µM,3.09 µM,> 100 µM,5.81 µM,> 100 µM,4.4 µM,> 100 µM,3.84 µM,> 100 µM,3.99 µM,> 100 µM,1.95 µM,20.2 µM,2.36 µM,7.06 µM

# From PubChem BioAssay (NCI)
